{"source": "patent US20110098177A1", "about": "“METHODS AND COMPOSITIONS OF PLANT MICRONUTRIENTS” (NOVUS INTERNATIONAL INC., priority 2006, published 2011)", "assay_type_in_all_cases": "in vivo", "key": {"[1]": {"system": "Aristotle bell pepper", "details": "1 week after treatment, scale 0 = no visible injury, 10 = plant death", "method_in_brief": "(§1)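 Florida-47 tomato and Aristotle bell pepper transplants in 2-gal pots with low-nutrient medium (pH 5.36), drip-irrigated; products at three rates in deionized water plus non-ionic surfactant sprayed on newly matured leaves at 3 and 7 WAT. Toxicity scored at 4 WAT (0=no damage, 10=death); foliar tissue analysed at 6 WAT; marketable fruit harvested 4 times (tomato).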"}, "[2]": {"system": "Florida-47 tomato", "details": "1 week after treatment, scale 0 = no visible injury, 10 = plant death", "method_in_brief": "as §1"}, "[3]": {"system": "Florida-47 tomato", "assay": "Marketable yield per plant, greenhouse Fall 2007, tomato", "procedure": "(§2) The following experiments were performed in a green house during the fall of 2007 at GCREC, Balm, University of Florida. Fifteen products, at 3 different application rates were examined. The plot size was 2-gallon pots. Crop set-up, procedures and variables were as follows.\n(§3) Transplants of ‘Florida-47’ tomato and ‘Aristotle’ bell pepper plants in the 4-true leaf stage (about 6 inches tall) were planted in 2-gal pots on Aug. 27, 2007. Pots were filled with a commercially available planting medium. This medium was selected based on the mineral composition of the products to be applied without providing significant nutritional inputs to the crops. Irrigation was provided with drip lines delivering between 0.50 and 0.33 gal/day/pot for tomato and bell pepper, respectively, and the crops were irrigated three times per day. No foliar pesticides were necessary.\n(§4) There were four control treatments corresponding to each target micronutrient in which non-Fe, non-Mn, non-Zn or non-Cu pots received all other essential nutrients under non-limiting conditions.\n(§5) Treatments were applied at three rates (high, medium and low) obtained from the estimated concentration of Zn, Fe, Cu, and Mn foliarly-applied in tomato and bell pepper in field situations (Table 1). Products were weighed and dissolved in 200 ml of deionized water with a non-ionic surfactant and applied to the newly-matured open leaves of each crop at 3 and 7 weeks after transplant (WAT). Treated pots were isolated during application to avoid cross-contamination of other treatments.\n(§6) Medium nutrient concentration was determined 1 week before treatment. The mineral composition of the medium was 26.8 ppm NH4—N, 49 ppm NO3—N, 15.8 ppm P, 91.2 ppm K, 82.3 ppm Ca, 58.2 ppm Mg, 23.9 ppm Na, 125.6 ppm S, 1.33 ppm Fe, 0.39 ppm Mn, 0.35 ppm Zn, 0.05 pp, Cu, 0.04 ppm B, 0 ppm Mo, 0.73 ppm Al, and 12.1 ppm Si. The pH of the medium was 5.36 and the electric conductivity was 1.38 mS/cm. The foliar tissue analysis was performed at 6 WAT and the concentration of N, P, K, Mg, Ca, S, B, Zn, Mn, Fe, and Cu was determined by a commercial laboratory. Plant toxicity was determined at 4 WAT by using a 0-10 visual scale, where 0=no visible damage and 10=total plant death. Marketable fruit weight was collected 2 times in bell pepper and 4 times in tomato following USDA standards.\n(§7) Data were analyzed using a general linear model, and means were separated using orthogonal contrasts at the 5% significance level."}, "[4]": {"system": "Aristotle bell pepper", "assay": "Marketable yield per plant, greenhouse Fall 2007, bell pepper", "procedure": "as §2, §3, §4, §5, §6, §7"}, "[5]": {"system": "Tygress tomato plants", "assay": "Foliar nutrient concentration at 7 WAT, greenhouse tomato spring 2009 (Examples 13-15)", "details": "7 WAT", "procedure": "(§8) The following experiments were performed in a green house during the spring of 2009 at GCREC, Balm, University of Florida. Crop set-up, procedures and variables were as follows.\n(§9) Transplants of ‘Tygress’ tomato plants were planted in 2-gallon pots filled with commercial planting medium with nutrient concentration of Fe, Zn, Mn, Cu being negligible and insufficient for crop growth. Irrigation and non-micronutrient fertilizer were provided daily through microsprinklers at recommended rates for tomato production in Florida. No pesticides were used. Treatments were as described in Tables 42, 43, and 44 below. BIOX-Cu was compared to Cu-sulfate, BIOX-EDC, and BIOX-O; and BIOX-Fe was compared to Fe-sulfate and BIOX-EDF. BIOX-MEZ is Ca-HMTBA.\n(§10) Treatments were applied at 6 WAT (weeks after transplanting) using a water volume of 200 mL/plant. Deionized water was used for foliar applications. A non-ionic surfactant was added. Other nutrients were applied as appropriate under non-limiting conditions.\nFoliar tissue nutrient analysis was performed at 3 WAT (i.e., 3 weeks before treatment) and 7 WAT (i.e., 1 weeks after treatment) on the non-applied newest leaves. The concentrations of N, P, K, Mg, Ca, B, Zn, Mn, Fe, and Cu in the foliar tissue were determined by a commercial laboratory. There were no significant differences between the foliar nutrient concentrations of any of the treatment groups prior to treatment.\n(§11) Experimental design was a randomized complete block design with 6 replications. Data were analyzed using a general linear model, and means were separated using an LSD test at the 5% significance level."}, "[6]": {"system": "Tygress tomato plants", "assay": "Yields of tomato fruits, greenhouse spring 2009 (Examples 13-15)", "procedure": "as §8, §9, §10\nMarketable fruit were collected three times during the growing season, starting at 10 WAT (4 weeks after the initial treatment). Tomato fruit was graded as marketable and non-marketable. Marketable fruit was sized as extra-large, large, and medium. Non-marketable fruit were harvested and number and weight recorded but not sized.\nas §11"}, "[7]": {"system": "Tygress tomato plants", "details": "for Toxicity (0-10): 0=no injury, 10=plant death", "procedure": "as §8, §9, §10\nToxicity of the treatments was assessed by rating foliar tissue using a visual scale, where 0=no injury and 10=plant death.\nas §11"}, "[8]": {"details": "foliar application at 3 and 7 WAT, rates not separated"}}, "note": "Where two headings read alike, the source gives them in different places. Marks after values point to notes of the source that are not given here."}
{"smiles": "CSCCC(O)C(=O)[O-].CSCCC(O)C(=O)[O-].[Ca+2]", "note": "(stereo not shown) [BIOX-MEZ, Ca-HMTBA]", "values": [{"measurement": "Pepper toxicity", "setting": "[1]; High rate", "result": 0}, {"measurement": "Pepper toxicity", "setting": "[1]; Low rate", "result": 0}, {"measurement": "Pepper toxicity", "setting": "[1]; Medium rate", "result": 0}, {"measurement": "Tomato toxicity", "setting": "[2]; High rate", "result": 0}, {"measurement": "Tomato toxicity", "setting": "[2]; Low rate", "result": 0}, {"measurement": "Tomato toxicity", "setting": "[2]; Medium rate", "result": 0}, {"measurement": "Marketable yield per plant, Tomato", "setting": "[3]; [8]", "result": "3.0* lb/plant"}, {"measurement": "Tomato yield compared with control (in words)", "setting": "[3]; foliar applications, P<0.05", "result": "significantly increased"}, {"measurement": "Marketable yield per plant, Pepper", "setting": "[4]; [8]", "result": "3.2* lb/plant"}, {"measurement": "Bell pepper yield compared with control (in words)", "setting": "[4]; foliar applications, P<0.05", "result": "significantly increased"}, {"measurement": "Nutrient concentration in tomato leaves: Ca", "setting": "[5]; 0.6 lb/acre", "result": 1.3, "unit": "b %"}, {"measurement": "Nutrient concentration in tomato leaves: K", "setting": "[5]; 0.6 lb/acre", "result": 3.8, "unit": "%"}, {"measurement": "Nutrient concentration in tomato leaves: Mg", "setting": "[5]; 0.6 lb/acre", "result": 0.6, "unit": "%"}, {"measurement": "Nutrient concentration in tomato leaves: N", "setting": "[5]; 0.6 lb/acre", "result": 3.8, "unit": "%"}, {"measurement": "Nutrient concentration in tomato leaves: P", "setting": "[5]; 0.6 lb/acre", "result": 0.6, "unit": "%"}, {"measurement": "Nutrient concentration in tomato leaves: Ca", "setting": "[5]; 1.2 lb/acre", "result": 1.3, "unit": "b %"}, {"measurement": "Nutrient concentration in tomato leaves: K", "setting": "[5]; 1.2 lb/acre", "result": 4.4, "unit": "%"}, {"measurement": "Nutrient concentration in tomato leaves: Mg", "setting": "[5]; 1.2 lb/acre", "result": 0.6, "unit": "%"}, {"measurement": "Nutrient concentration in tomato leaves: N", "setting": "[5]; 1.2 lb/acre", "result": 4.2, "unit": "%"}, {"measurement": "Nutrient concentration in tomato leaves: P", "setting": "[5]; 1.2 lb/acre", "result": 0.7, "unit": "%"}, {"measurement": "Nutrient concentration in tomato leaves: Ca", "setting": "[5]; 2.5 lb/acre", "result": 1.3, "unit": "b %"}, {"measurement": "Nutrient concentration in tomato leaves: K", "setting": "[5]; 2.5 lb/acre", "result": 3.9, "unit": "%"}, {"measurement": "Nutrient concentration in tomato leaves: Mg", "setting": "[5]; 2.5 lb/acre", "result": 0.5, "unit": "%"}, {"measurement": "Nutrient concentration in tomato leaves: N", "setting": "[5]; 2.5 lb/acre", "result": 4.4, "unit": "%"}, {"measurement": "Nutrient concentration in tomato leaves: P", "setting": "[5]; 2.5 lb/acre", "result": 0.7, "unit": "%"}, {"measurement": "Nutrient concentration in tomato leaves: Ca", "setting": "[5]; 4.8 lb/acre", "result": 1.2, "unit": "b %"}, {"measurement": "Nutrient concentration in tomato leaves: K", "setting": "[5]; 4.8 lb/acre", "result": 3.9, "unit": "%"}, {"measurement": "Nutrient concentration in tomato leaves: Mg", "setting": "[5]; 4.8 lb/acre", "result": 0.6, "unit": "%"}, {"measurement": "Nutrient concentration in tomato leaves: N", "setting": "[5]; 4.8 lb/acre", "result": 3.8, "unit": "%"}, {"measurement": "Nutrient concentration in tomato leaves: P", "setting": "[5]; 4.8 lb/acre", "result": 0.6, "unit": "%"}, {"measurement": "Nutrient concentration in tomato leaves: Ca", "setting": "[5]; 7.2 lb/acre", "result": 1.7, "unit": "a %"}, {"measurement": "Nutrient concentration in tomato leaves: K", "setting": "[5]; 7.2 lb/acre", "result": 4.6, "unit": "%"}, {"measurement": "Nutrient concentration in tomato leaves: Mg", "setting": "[5]; 7.2 lb/acre", "result": 0.6, "unit": "%"}, {"measurement": "Nutrient concentration in tomato leaves: N", "setting": "[5]; 7.2 lb/acre", "result": 4.7, "unit": "%"}, {"measurement": "Nutrient concentration in tomato leaves: P", "setting": "[5]; 7.2 lb/acre", "result": 0.7, "unit": "%"}, {"measurement": "Foliar Ca concentration, statement", "setting": "[5]; BIOX-MEZ at a rate of 7.2 lb/acre", "result": "significantly increased"}, {"measurement": "Foliar levels of N, P, K, and Mg, statement", "setting": "[5]; BIOX-MEZ treatment", "result": "not affected"}, {"measurement": "Marketable yield", "setting": "[6]; 0.6 lb/acre", "result": 1100, "unit": "g/plant"}, {"measurement": "Marketable yield", "setting": "[6]; 1.2 lb/acre", "result": 875, "unit": "g/plant"}, {"measurement": "Marketable yield", "setting": "[6]; 2.5 lb/acre", "result": 925, "unit": "g/plant"}, {"measurement": "Marketable yield", "setting": "[6]; 4.8 lb/acre", "result": 1000, "unit": "g/plant"}, {"measurement": "Marketable yield", "setting": "[6]; 7.2 lb/acre", "result": 900, "unit": "g/plant"}, {"measurement": "Marketable or non-marketable yields, statement", "setting": "[6]; BIOX-MEZ treatment", "result": "no change in marketable or non-marketable yields"}, {"measurement": "Toxicity (0-10)", "setting": "[7]; 0.6 lb/acre", "result": 0}, {"measurement": "Toxicity (0-10)", "setting": "[7]; 1.2 lb/acre", "result": 0}, {"measurement": "Toxicity (0-10)", "setting": "[7]; 2.5 lb/acre", "result": 1}, {"measurement": "Toxicity (0-10)", "setting": "[7]; 4.8 lb/acre", "result": 1}, {"measurement": "Toxicity (0-10)", "setting": "[7]; 7.2 lb/acre", "result": 1}, {"measurement": "Toxic effects on the tomato plants, statement", "setting": "[7]; BIOX-MEZ application", "result": "no major toxic effects"}]}
